Laboratory results from patent US20150329558A1, “FUSED HETEROCYCLIC COMPOUNDS AS ION CHANNEL MODULATORS” (Gilead Sciences, Inc., priority 2011, published 2015).

Target: wild-type human cardiac sodium channel, hNav1.5 (late INa) (Homo sapiens, UniProt Q14524)
Test: Late INa screening assay (QPatch whole cell patch clamp)
Format: cell-based
Conditions: percent block of late INa, compound at 1 μM, 10 μM Tefluthrin, HEK293 hNav1.5; read-out: Late INa 1 μM
Protocol: The late sodium current (Late INa) and peak sodium current (Peak INa) assays are performed on an automated electrophysiology platform, QPatch 16× (Sophion Bioscience, Copenhagen, Denmark), which uses the whole cell patch clamp technique to measure currents through the cell membrane of up to 16 cells at a time. The assay uses an HEK293 (human embryonic kidney) cell line heterologously expressing the wild-type human cardiac sodium channel, hNav1.5, purchased from Millipore (Billerica, Mass.). No beta subunits were coexpressed with the Na channel alpha subunit. Cells are maintained with standard tissue culture procedures and stable channel expression is maintained with 400 μg/mL Geneticin in the culture medium. […] Experiments are carried out at 23-25° C. For both the Late INa and Peak INa assays, series resistance compensation is set to 100% and series resistance and whole-cell compensation are performed automatically. Currents are digitized at 25 kHz and low-pass filtered at 12 kHz and 10 kHz for the late and peak INa assays, respectively. Currents through open sodium channels are automatically recorded and stored in the Sophion Bioscience Oracle database (Sophion Bioscience, Copehagen, Denmark). Analysis is performed using QPatch Assay and database software and data are compiled in Excel. Compound stocks are routinely made by the Gilead Sample Bank in plastic vials to 10 mM in dimethyl sulfoxide (DMSO). In some cases, when compounds are not soluble in DMSO, they are made in 100% ethanol. Stocks are sonicated as necessary. […] The intracellular solution used to perfuse the inside of the cells for both the Late INa and Peak INa assays contains: 120 mM CsF, 20 mM CsCl, 5 mM EGTA, 5 mM HEPES and pH adjusted to 7.4 with CsOH. Compounds are diluted in extracellular solution to 1 μM in glass vials and then transferred to glass well plates before robotic addition to the cells. […] For the Late INa assay, sodium channels are activated every 10 seconds (0.1 Hz) by depolarizing the cell membrane to −20 mV for 250 milliseconds (ms) from a holding potential of −120 mV. In response to a −20 mV voltage step, typical hNav1.5 sodium currents activate rapidly to a peak negative current and then inactivate nearly completely within 3-4 ms. All compounds were tested to determine their activity in blocking the late sodium current. Late INa was generated by adding 10 μM Tefluthrin (pyrethroid) to the extracellular solution while recording Na currents. To confirm the block of late INa observed using the automated screening method, a second late INa enhancer (ATX-II) and the manual patch clamp method were used. ATX-II and tefluthrin occupy distinct, non-overlapping binding sites and modify Na^+ channel function differently to increase late INa. […] For the purposes of the screening, late INa is defined as the mean current between 225 ms and 250 ms after stepping to −20 mV to activate Na channels. […] Results are reported as percent block of late INa.

Sequence of wild-type human cardiac sodium channel, hNav1.5 (late INa) (Q14524 whole entry): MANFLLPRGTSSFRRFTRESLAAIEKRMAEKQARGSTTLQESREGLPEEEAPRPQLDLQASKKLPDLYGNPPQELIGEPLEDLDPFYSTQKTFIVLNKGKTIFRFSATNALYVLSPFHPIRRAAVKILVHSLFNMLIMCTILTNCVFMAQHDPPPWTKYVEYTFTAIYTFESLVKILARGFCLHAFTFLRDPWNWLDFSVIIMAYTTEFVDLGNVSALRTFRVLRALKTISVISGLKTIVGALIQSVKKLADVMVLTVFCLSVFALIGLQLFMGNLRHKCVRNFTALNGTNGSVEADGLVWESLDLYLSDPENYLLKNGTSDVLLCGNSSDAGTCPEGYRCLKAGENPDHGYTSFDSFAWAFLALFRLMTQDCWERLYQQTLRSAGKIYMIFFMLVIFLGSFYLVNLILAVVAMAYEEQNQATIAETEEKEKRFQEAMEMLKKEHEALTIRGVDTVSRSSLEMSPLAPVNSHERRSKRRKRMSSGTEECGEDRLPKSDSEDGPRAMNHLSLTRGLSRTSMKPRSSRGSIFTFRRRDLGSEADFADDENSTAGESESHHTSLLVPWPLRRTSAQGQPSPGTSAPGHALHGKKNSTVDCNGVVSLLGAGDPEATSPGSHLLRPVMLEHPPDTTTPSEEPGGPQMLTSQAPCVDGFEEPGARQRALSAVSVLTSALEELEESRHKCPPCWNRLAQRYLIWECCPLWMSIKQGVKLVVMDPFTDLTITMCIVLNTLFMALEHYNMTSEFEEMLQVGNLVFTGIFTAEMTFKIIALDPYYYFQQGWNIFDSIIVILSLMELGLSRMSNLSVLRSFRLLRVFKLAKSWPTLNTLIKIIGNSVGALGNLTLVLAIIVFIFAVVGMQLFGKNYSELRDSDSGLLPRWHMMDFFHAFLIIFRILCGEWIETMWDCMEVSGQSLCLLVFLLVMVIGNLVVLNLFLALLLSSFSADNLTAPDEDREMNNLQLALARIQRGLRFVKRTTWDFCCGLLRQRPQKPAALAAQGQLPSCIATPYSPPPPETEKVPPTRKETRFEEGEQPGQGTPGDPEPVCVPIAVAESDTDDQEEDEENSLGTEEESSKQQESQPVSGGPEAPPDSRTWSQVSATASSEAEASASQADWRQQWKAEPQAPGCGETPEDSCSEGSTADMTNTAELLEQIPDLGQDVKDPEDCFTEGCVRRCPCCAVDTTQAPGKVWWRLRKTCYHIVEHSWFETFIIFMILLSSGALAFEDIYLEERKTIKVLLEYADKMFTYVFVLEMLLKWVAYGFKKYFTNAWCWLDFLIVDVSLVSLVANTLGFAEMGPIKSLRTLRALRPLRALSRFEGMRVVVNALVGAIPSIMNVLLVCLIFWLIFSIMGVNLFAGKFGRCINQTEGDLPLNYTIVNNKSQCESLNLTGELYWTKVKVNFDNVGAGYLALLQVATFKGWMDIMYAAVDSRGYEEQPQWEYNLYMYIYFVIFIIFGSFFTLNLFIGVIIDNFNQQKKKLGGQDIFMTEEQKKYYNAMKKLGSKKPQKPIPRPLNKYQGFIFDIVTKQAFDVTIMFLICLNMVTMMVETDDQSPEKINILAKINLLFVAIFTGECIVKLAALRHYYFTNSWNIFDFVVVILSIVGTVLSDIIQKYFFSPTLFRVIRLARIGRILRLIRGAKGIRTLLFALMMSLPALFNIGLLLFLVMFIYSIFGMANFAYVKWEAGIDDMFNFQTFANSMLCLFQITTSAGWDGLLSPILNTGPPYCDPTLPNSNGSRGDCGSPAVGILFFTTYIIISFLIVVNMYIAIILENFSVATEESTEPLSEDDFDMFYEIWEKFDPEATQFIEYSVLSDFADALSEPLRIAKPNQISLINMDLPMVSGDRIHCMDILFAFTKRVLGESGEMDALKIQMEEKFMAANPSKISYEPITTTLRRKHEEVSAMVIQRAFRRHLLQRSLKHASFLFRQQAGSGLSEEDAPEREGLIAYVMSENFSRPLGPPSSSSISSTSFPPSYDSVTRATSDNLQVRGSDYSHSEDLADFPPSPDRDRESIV

Row | Compound | inhibition at 1 µM [%]
1 | O=C(NC1CCCC1)N1CCc2ccc(-c3ccc(C(F)(F)F)cc3)cc2C1 [IX-77, N-cyclopentyl-7-(4-(trifluoromethyl)phenyl)-3,4-dihydroisoquinoline-2(1H)-carboxamide] | 22
2 | O=C(N1CCC1)N1CCc2ccc(-c3ccc(C(F)(F)F)cc3)cc2C1 [IX-88, azetidin-1-yl(7-(4-(trifluoromethyl)phenyl)-3,4-dihydroisoquinolin-2(1H)-yl)methanone] | 25
3 | CC1CCN(C(=O)N2CCc3ccc(-c4ccc(C(F)(F)F)cc4)cc3C2)C1 (stereo not shown) [IX-90, (3-methylpyrrolidin-1-yl)(7-(4-(trifluoromethyl)phenyl)-3,4-dihydroisoquinolin-2(1H)-yl)methanone] | 27
4 | O=C(N1CCc2ccc(-c3ccc(C(F)(F)F)cc3)cc2C1)N1CCC(O)C1 (stereo not shown) [IX-91, (3-hydroxypyrrolidin-1-yl)(7-(4-(trifluoromethyl)phenyl)-3,4-dihydroisoquinolin-2(1H)-yl)methanoneo] | 16
5 | O=C(N1CCc2ccc(-c3ccc(C(F)(F)F)cc3)cc2C1)N1CC(F)(F)C1 [IX-92, (3,3-difluoroazetidin-1-yl)(7-(4-(trifluoromethyl)phenyl)-3,4-dihydroisoquinolin-2(1H)-yl)methanone] | 17
6 | O=C(N1CCc2ccc(-c3ccc(C(F)(F)F)cc3)cc2C1)N1CC(Oc2cccnc2)C1 [IX-93, (3-(pyridin-3-yloxy)azetidin-1-yl)(7-(4-(trifluoromethyl)phenyl)-3,4-dihydroisoquinolin-2(1H)-yl)methanone] | 15
7 | O=C(N1CCc2ccc(-c3ccc(C(F)(F)F)cc3)cc2C1)N1CCC(F)C1 (stereo not shown) [IX-94, (3-fluoropyrrolidin-1-yl)(7-(4-(trifluoromethyl)phenyl)-3,4-dihydroisoquinolin-2(1H)-yl)methanone] | 33
8 | O=C(N1CCc2ccc(-c3ccc(C(F)(F)F)cc3)cc2C1)N1CC(F)C1 [IX-95, (3-fluoroazetidin-1-yl)(7-(4-(trifluoromethyl)phenyl)-3,4-dihydroisoquinolin-2(1H)-yl)methanone] | 25
9 | Cn1cnc(S(=O)(=O)N2CCc3ccc(-c4ccc(C(F)(F)F)cc4)cc3C2)c1 [IX-98, 2-(1-methyl-1H-imidazol-4-ylsulfonyl)-7-(4-(trifluoromethyl)phenyl)-1,2,3,4-tetrahydroisoquinoline] | 27
10 | O=C(N1CCc2ccc(-c3ccc(C(F)(F)F)cc3)cc2C1)N1CC[C@@H](CO)C1 [IX-101, (R)-(3-(hydroxymethyl)pyrrolidin-1-yl)(7-(4-(trifluoromethyl)phenyl)-3,4-dihydroisoquinolin-2(1H)-yl)methanone] | 15
11 | O=C(N1CCc2ccc(-c3ccc(C(F)(F)F)cc3)cc2C1)N1CCC[C@H]1CO [IX-102, (S)-(2-(hydroxymethyl)pyrrolidin-1-yl)(7-(4-(trifluoromethyl)phenyl)-3,4-dihydroisoquinolin-2(1H)-yl)methanone] | 27
12 | CS(=O)(=O)C1CN(C(=O)N2CCc3ccc(-c4ccc(C(F)(F)F)cc4)cc3C2)C1 [IX-104, (3-(methylsulfonyl)azetidin-1-yl)(7-(4-(trifluoromethyl)phenyl)-3,4-dihydroisoquinolin-2(1H)-yl)methanone] | 20
13 | C[C@@H]1CC[C@H](C)N1C(=O)N1CCc2ccc(-c3ccc(C(F)(F)F)cc3)cc2C1 [IX-106] | 21
14 | CC1CN(C(=O)N2CCc3ccc(-c4ccc(C(F)(F)F)cc4)cc3C2)C1 [IX-107, (3-methylazetidin-1-yl)(7-(4-(trifluoromethyl)phenyl)-3,4-dihydroisoquinolin-2(1H)-yl)methanone] | 24
15 | Nc1n[nH]c(C(=O)N2CCc3ccc(-c4ccc(C(F)(F)F)cc4)cc3C2)n1 [IX-111, (3-amino-1H-1,2,4-triazol-5-yl)(7-(4-(trifluoromethyl)phenyl)-3,4-dihydroisoquinolin-2(1H)-yl)methanone] | 27
16 | CC1(O)CN(C(=O)N2CCc3ccc(-c4ccc(C(F)(F)F)cc4)cc3C2)C1 [IX-112, (3-hydroxy-3-methylazetidin-1-yl)(7-(4-(trifluoromethyl)phenyl)-3,4-dihydroisoquinolin-2(1H)-yl)methanone] | 18
17 | O=C(N1CCc2ccc(-c3ccc(C(F)(F)F)cc3)cc2C1)N1CC(CO)C1 [IX-113, (3-(hydroxymethyl)azetidin-1-yl)(7-(4-(trifluoromethyl)phenyl)-3,4-dihydroisoquinolin-2(1H)-yl)methanone] | 17
18 | CC(C)(C)OC(=O)N1CCC[C@@H]1C(=O)N1CCc2ccc(-c3ccc(C(F)(F)F)cc3)cc2C1 [IX-114, (R)-tert-butyl 2-(7-(4-(trifluoromethyl)phenyl)-1,2,3,4-tetrahydroisoquinoline-2-carbonyl)pyrrolidine-1-carboxylate] | 20
19 | O=C(c1cnnn1-c1ccccc1)N1CCc2ccc(-c3ccc(C(F)(F)F)cc3)cc2C1 [IX-116, (1-phenyl-1H-1,2,3-triazol-5-yl)(7-(4-(trifluoromethyl)phenyl)-3,4-dihydroisoquinolin-2(1H)-yl)methanone] | 29
20 | CCOC(=O)Cn1cc(C(=O)N2CCc3ccc(-c4ccc(C(F)(F)F)cc4)cc3C2)nn1 [IX-119, ethyl 2-(4-(7-(4-(trifluoromethyl)phenyl)-1,2,3,4-tetrahydroisoquinoline-2-carbonyl)-1H-1,2,3-triazol-1-yl)acetate] | 15
21 | O=C(N1CCCC1)N1CCc2ccc(-c3ccc(OC(F)(F)F)cc3)cc2C1 [IX-122, pyrrolidin-1-yl(7-(4-(trifluoromethoxy)phenyl)-3,4-dihydroisoquinolin-2(1H)-yl)methanone] | 36
22 | O=C(NCc1ncccn1)N1CCc2ccc(-c3ccc(OC(F)(F)F)cc3)cc2C1 [IX-123, N-(pyrimidin-2-ylmethyl)-7-(4-(trifluoromethoxy)phenyl)-3,4-dihydroisoquinoline-2(1H)-carboxamide] | 17
23 | CC1(C)Oc2ccc(-c3ccc(OC(F)(F)F)cc3)cc2C(=O)N1Cc1ccccn1 [VIII-13, 2,2-dimethyl-3-(pyridin-2-ylmethyl)-6-(4-(trifluoromethoxy)phenyl)-2H-benzo[e][1,3]oxazin-4(3H)-one] | 20
24 | O=C1c2cc(-c3ccc(C(F)(F)F)cc3F)ccc2OCN1Cc1ncccn1 [VIII-18, 6-(2-fluoro-4-(trifluoromethyl)phenyl)-3-(pyrimidin-2-ylmethyl)-2H-benzo[e][1,3]oxazin-4(3H)-one] | 54
25 | O=C1c2cc(-c3ccc(C(F)(F)F)cc3)ccc2OCN1Cc1ncccn1 [VIII-19, 3-(pyrimidin-2-ylmethyl)-6-(4-(trifluoromethyl)phenyl)-2H-benzo[e][1,3]oxazin-4(3H)-one] | 61
26 | O=C1c2cc(-c3ccc(C(F)(F)F)cc3)ccc2OCN1Cc1ccccc1 [VIII-21, 3-benzyl-6-(4-(trifluoromethyl)phenyl)-2H-benzo[e][1,3]oxazin-4(3H)-one] | 58
27 | O=C1c2cc(-c3ccc(C(F)(F)F)cc3F)ccc2OCN1Cc1ccccc1 [VIII-22, 3-benzyl-6-(2-fluoro-4-(trifluoromethyl)phenyl)-2H-benzo[e][1,3]oxazin-4(3H)-one] | 45
28 | O=C1c2cc(-c3ccc(OC(F)(F)F)cc3)ccc2OCN1Cc1ccccc1 [VIII-23, 3-benzyl-6-(4-(trifluoromethoxy)phenyl)-2H-benzo[e][1,3]oxazin-4(3H)-one] | 48
